Measurements from patent US9682961B2, “Quinazoline derivative” (CARNA BIOSCIENCES, INC., priority 2013, dated 2017).

Experiments:
[1] = test system: human-derived colorectal cancer cell line HCT116; assay: Antitumor effects in mice model subcutaneously transplanted with human-derived cancer cell line; type: in vivo; details: oral, twice a day for 14 days, HCT116 nude mice
Protocol: The antitumor effects of the compound of the present invention were studied using nude mice subcutaneously transplanted with a human-derived colorectal cancer cell line HCT116, in which the Wnt signaling pathway was constantly activated.
HCT116 cells cultured in the same manner as in Test Example 2 were adjusted with D-PBS (NACALAI TESQUE, INC.) so as to have a cell concentration of 7.5×10^7/mL, and the cell suspension was ice cooled in a 15 mL tube. To the cell suspension, Matrigel (BD Biosciences Co.) was added in an amount of one-fourth of the cell suspension to prepare a preparation for cell transplantation. Into the back of BALB/c Slc-nu/nu mice (female, 8 weeks old, Japan SLC, Inc.), 0.1 mL of the preparation for cell transplantation was subcutaneously injected. […]
To the respective mice transplanted with cancer cells (nine in each group), forced oral administration of doses of the substance to be tested calculated from their body weights was performed twice a day (at intervals of six hours or more) for 14 days in total. Tumor volumes of the respective mice were calculated using the following formulas, and the antitumor effects were evaluated using a relative tumor volume ratio as an indicator.

c-MYC protein expression = assay: Expression level of Wnt/β-catenin target protein c-MYC by western blotting in HCT116 cells; type: cell-based; details: Homo sapiens, 24 hours, read-out: Inhibition rate (%) c-MYC protein
Protocol: Expression levels of target proteins of the Wnt/β-catenin signaling pathway was analyzed by western blotting method, and effects of the compound of the present invention on Wnt/β-catenin signaling activity were studied by using a change of these levels as an indicator. HCT116 cells cultured in the same manner as in Test Example 2 were diluted with the medium 1 so as to have a cell concentration of 5×10^5 cells/mL, and 5 mL of the diluted cells were seeded into T25 flasks, followed by culturing overnight in the 5% CO2 incubator. Next day, solutions of the compound to be tested obtained by diluting 10 and 3 mM DMSO stock solutions of the compound to be tested 100-fold with the medium 1 were added to each flask so that the amount of the solution in the flask was one tenth of the amount of the final solution (final concentrations of the compound to be tested: 10 and 3 μM). […] Supernatant was recovered by centrifugal operation (15,000 rpm, 10 min.) and amounts of proteins were determined. […] Thereafter, using a CCD camera (GE Healthcare Co., ImageQuant LAS 500), the respective bands were detected by chemiluminescence. The detected bands were quantified by densitometry (GE Healthcare Co., ImageQuant TL v8.1.0.0). Inhibition rates were calculated from the intensities of the bands in the respective groups, with the luminescence of the band of the DMSO added group being 100%. […]

O[C@H]1CC[C@@H](Oc2cccc3cnc(Nc4ccc5nc[nH]c5c4)nc23)CC1 [Example 1, cis-4-({2-[(1H-benzo[d]imidazol-6-yl)amino]quinazolyn-8-yl}oxy)cyclohexanol]
Tumor growth inhibition rate (TGI) on the last administration day ([1]; 40 mg/kg): 42% | Tumor growth inhibition rate (TGI) on the last administration day ([1]; 80 mg/kg): 70% | inhibition at 3 µM (c-MYC protein expression; HCT-116, 3 μM): 63.9% | inhibition at 10 µM (c-MYC protein expression; HCT-116, 10 μM): 90.2%
